# According to ChEMBL document CHEMBL4402517, “Rational modification of Mannich base-type derivatives as novel antichagasic compounds: Synthesis, in vitro and in vivo evaluation” (Bioorg Med Chem, 2019):
# How the values were obtained:
# [1] = Toxicity in BALB/c mouse infected with Trypanosoma cruzi MHOM/Pe/2011/Arequipa;DTU 5 bloodstream trypomastigote assessed as increase in serum total bilirubin level in chronic phase at 20 mg/kg/day, po administered for 5 consecutive days starting from day 70 post infection and measured at day 76 post infection relative to control; format: organism-based; conditions: in vivo
# [2] = (§1) Toxicity in BALB/c mouse infected with Trypanosoma cruzi MHOM/Pe/2011/Arequipa;DTU 5 bloodstream trypomastigote assessed as decrease in serum total bilirubin level in acute phase at 20 mg/kg/day, po administered for 5 consecutive days starting from day 8 post infection and measured at day 14 post infection by biochemical analysis relative to control; format: organism-based; parameters: scale not given: the % may be the effect or the level left; conditions: in vivo
# [3] = as §1, with “as increase” for “as decrease”, “serum aspartate aminotransferase” for “serum total bilirubin”, “measured on” for “measured at”, “day 100” for “day 14”; format: organism-based; conditions: in vivo
# [4] = as §1, with “as change” for “as decrease”, “serum uric acid” for “serum total bilirubin”, “measured on” for “measured at”, “day 100” for “day 14”; format: organism-based; conditions: in vivo
# [5] = Mutagenecity against Salmonella typhimurium TA97a assessed as number of colonies at 7.4 ug/plate in absence of Sprague-Dawley rat S9 with metabolic activation measured after 48 hrs by Ames test ( Rvb = 37 +/- 6.5); format: toxicity; conditions: salmonella enterica subsp. enterica serovar typhimurium, s9, 48 h
# [6] = Mutagenecity against Salmonella typhimurium TA1535 assessed as number of colonies at 66.7 ug/plate in absence of Sprague-Dawley rat S9 measured after 48 hrs by Ames test (reference value: 13.3 +/- 2.5); format: toxicity; conditions: salmonella enterica subsp. enterica serovar typhimurium, s9, 48 h
# [7] = Mutagenecity against Salmonella typhimurium TA 100 assessed as number of colonies at 66.7 ug/plate in presence of Sprague-Dawley rat S9 with metabolic activation measured after 48 hrs by Ames test (reference value: 47.3 +/- 5.7); format: toxicity, subcellular; conditions: salmonella enterica subsp. enterica serovar typhimurium, s9, 48 h
smiles,measurement,setting,value
O=C(CCN1CCN(c2ccc(C(F)(F)F)cc2)CC1)c1ccc(O)cc1,Activity,[1],> 40%
O=C(Cn1ccnc1[N+](=O)[O-])NCc1ccccc1 [BENZNIDAZOLE],Activity,[2],<= 10%
same,Activity,[3],<= 10%
O=C(CCN1CCN(c2ccc(Cl)cc2)CC1)c1ccc(O)cc1,Activity,[4],> 10%
same,Activity,[5],34.4
same,Activity,[6],3.7
same,Activity,[7],54.7
